{"source": "patent US20020018806A1", "about": "“Lipopeptide adjuvants” (priority 2000, published 2002)", "tested_on": "peripheral blood mononuclear cells", "experiment": "T-cell promiscuity in unimmunized humans: PBMC proliferation with lipopeptide (3H-thymidine incorporation)", "type": "cell-based, human", "conditions": "PBMC 3×10^5/well, 5-6 days with lipopeptide, responder = ≧2 S.I. (cpm with antigen/cpm media only)"}
{"substance": "Tetanus toxoid", "values": [{"measurement": "Responder/Total", "value": "10/21"}]}
